In ChEMBL document CHEMBL2074543, “Interactions of cationic drugs and cardiac glycosides at the hepatic uptake level: studies in the rat in vivo, isolated perfused rat liver, isolated rat hepatocytes and oocytes expressing oatp2” (Arch Pharm Res, 2002):

Target: T1, Solute carrier organic anion transporter family member 1A4 (Rattus norvegicus, UniProt O35913)
T1 sequence (O35913 whole entry): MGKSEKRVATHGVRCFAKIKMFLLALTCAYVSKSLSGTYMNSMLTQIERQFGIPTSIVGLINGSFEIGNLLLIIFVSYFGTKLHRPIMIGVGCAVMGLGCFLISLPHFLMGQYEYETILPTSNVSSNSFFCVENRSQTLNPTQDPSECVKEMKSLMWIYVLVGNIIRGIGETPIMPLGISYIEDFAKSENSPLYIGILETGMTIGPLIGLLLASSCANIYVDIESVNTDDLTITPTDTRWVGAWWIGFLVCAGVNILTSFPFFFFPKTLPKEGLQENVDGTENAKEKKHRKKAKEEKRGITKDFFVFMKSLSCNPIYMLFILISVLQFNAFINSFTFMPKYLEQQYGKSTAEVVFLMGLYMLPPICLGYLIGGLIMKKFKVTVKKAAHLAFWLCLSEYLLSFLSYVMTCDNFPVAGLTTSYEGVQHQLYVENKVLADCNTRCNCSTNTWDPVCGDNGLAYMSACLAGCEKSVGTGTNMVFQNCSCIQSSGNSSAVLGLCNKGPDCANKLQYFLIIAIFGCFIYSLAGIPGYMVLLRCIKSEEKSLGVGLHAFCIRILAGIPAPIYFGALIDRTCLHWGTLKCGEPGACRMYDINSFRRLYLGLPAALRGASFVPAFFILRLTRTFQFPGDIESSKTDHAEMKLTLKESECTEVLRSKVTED
Assay: TP_TRANSPORTER: inhibition of Rocuronium uptake in Xenopus laevis oocytes
Type: functional, cell-based
Conditions: oocyte

Row | Structure (SMILES) | Activity
1 | CC[N+](C)(CC)CCNC(=O)c1ccc(N=[N+]=[N-])cc1.[I-] [AZIDOPROCAINAMIDE METHOIODIDE] | is not an inhibitor [-]
2 | CCCC[N+](C)(CCCC)CCCC [TRIBUTYLMETHYLAMMONIUM] | is not an inhibitor [-]
